For eleven compounds, T/C results are on record in PubChem BioAssay AID180 (DTP/NCI, 2004).

In the test the test system is BDF1 mice, Adenocarcinoma 755 s.c., tumor weight T/C. As to the kind of experiment: NCI In Vivo Anticancer Drug Screen. Data for tumor model Adenocarcinoma 755 (subcutaneous) in B6D2F1 (BDF1) mice. As to conditions: endpoint: mean tumor weight, higher = larger tumour. An outline of the steps:
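Compound activity was tested in mice carrying transplanted tumors. Survival or tumor size was measured, and each value is the treated-group measurement divided by that of the vehicle-treated control group (T/C).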

The mark [1] stands for this setting: dose: 12.0 mg/kg/injection, schedule: Q01DX011 (ip), vehicle: methylcellulose (MC).
[2] abbreviates: dose: 15.0 mg/kg/injection, schedule: Q01DX011 (ip), vehicle: carboxymethylcellulose (CMC).
The mark [3] stands for this setting: dose: 30.0 mg/kg/injection, schedule: Q01DX011 (ip), vehicle: carboxymethylcellulose (CMC).
The mark [4] stands for this setting: dose: 60.0 mg/kg/injection, schedule: Q01DX011 (ip), vehicle: carboxymethylcellulose (CMC).
Where [5] appears, read: dose: 50.0 mg/kg/injection, schedule: Q01DX011 (ip), vehicle: saline.

Structures are written as SMILES. “And” between values parts separate entries of the source, which are not always exact repeats. Equal values may be shown once.

For the compound `CC(=O)OC1(C)CC(C)C(=O)C(C(O)CC2CC(=O)NC(=O)C2)C1` (stereo not given), the T/C is, setting by setting: (dose: 0.2 mg/kg/injection, schedule: Q01DX006 (ip), vehicle: other) 38 % of control; (dose: 0.5 mg/kg/injection, schedule: Q01DX006 (ip), vehicle: other) 17 % of control; (dose: 0.5 mg/kg/injection, schedule: Q01DX006 (ip), vehicle: water) 72 % of control; (dose: 2.0 mg/kg/injection, schedule: Q01DX006 (ip), vehicle: water) 66 % of control; (dose: 5.0 mg/kg/injection, schedule: Q01DX006 (ip), vehicle: water) 114 % of control; (dose: 10.0 mg/kg/injection, schedule: Q01DX006 (ip), vehicle: water) 71 % of control. The T/C reads like this: (dose: 1:500.0 dilution, schedule: Q01DX006 (ip), vehicle: water) 84 % of control; (dose: 1:1000.0 dilution, schedule: Q01DX006 (ip), vehicle: water) 115 % of control; (dose: 1:2000.0 dilution, schedule: Q01DX006 (ip), vehicle: water) 105 % of control and 83 % of control; (dose: 1:20000.0 dilution, schedule: Q01DX006 (ip), vehicle: water) 39 % of control; (dose: 1:100000.0 dilution, schedule: Q01DX006 (ip), vehicle: water) 101 % of control.

Take `CSc1ncc(Br)c(Sc2nc(N)nc3nc[nH]c23)n1`: the T/C (dose: 1.0 mg/kg/injection, schedule: Q01DX011 (ip), vehicle: methylcellulose (MC)) is 75 % of control; the T/C (dose: 3.0 mg/kg/injection, schedule: Q01DX011 (ip), vehicle: methylcellulose (MC)) is 87 % of control; the T/C (dose: 6.0 mg/kg/injection, schedule: Q01DX011 (ip), vehicle: methylcellulose (MC)) is 14 % of control; the T/C under setting [1] is 3 % of control; the T/C under setting [2] is 10 % of control.

As to `CCC(=O)O[C@H]1CC[C@H]2[C@@H]3CCC4=CC(=O)CC[C@]4(C)[C@H]3CC[C@]12C`, the T/C is, setting by setting: (dose: 125.0 mg/kg/injection, schedule: Q01DX011 (sc), vehicle: steriod suspending solution) 101 % of control and 104 % of control; (dose: 400.0 mg/kg/injection, schedule: Q01DX011 (sc), vehicle: steriod suspending solution) 69 % of control; (dose: 666.66 mg/kg/injection, schedule: Q01DX011 (sc), vehicle: steriod suspending solution) 61 % of control.

On to `CC(=O)OCC(=O)C1(O)C(C)CC2C3C=C(C)C4=Cc5c(cnn5-c5ccccc5)CC4(C)C3C(O)CC21C` (stereo not given), for which the T/C reads like this: (dose: 0.01 mg/kg/injection, schedule: Q01DX011 (sc), vehicle: steriod suspending solution) 74 % of control; (dose: 0.02 mg/kg/injection, schedule: Q01DX011 (sc), vehicle: steriod suspending solution) 59 % of control; (dose: 0.05 mg/kg/injection, schedule: Q01DX011 (sc), vehicle: steriod suspending solution) 46 % of control and 48 % of control; (dose: 0.1 mg/kg/injection, schedule: Q01DX011 (sc), vehicle: steriod suspending solution) 19 % of control and 23 % of control; (dose: 0.2 mg/kg/injection, schedule: Q01DX011 (sc), vehicle: steriod suspending solution) 9 % of control and 13 % of control; (dose: 1.0 mg/kg/injection, schedule: Q01DX011 (sc), vehicle: steriod suspending solution) 14 % of control. In addition, the T/C is, setting by setting: (dose: 5.0 micrograms/kg/injection, schedule: Q01DX011 (sc), vehicle: steriod suspending solution) 54 % of control; (dose: 10.0 micrograms/kg/injection, schedule: Q01DX011 (sc), vehicle: steriod suspending solution) 106 % of control; (dose: 25.0 micrograms/kg/injection, schedule: Q01DX011 (sc), vehicle: steriod suspending solution) 46 % of control.

For the compound `CN(C)/N=N/c1nc[nH]c1C(N)=O`, the T/C (dose: 5.0 mg/kg/injection, schedule: Q01DX011 (ip), vehicle: carboxymethylcellulose (CMC)) is 79 % of control; the T/C (dose: 10.0 mg/kg/injection, schedule: Q01DX011 (ip), vehicle: carboxymethylcellulose (CMC)) was 59 % of control; the T/C under setting [1] is 50 % of control; the T/C (dose: 16.0 mg/kg/injection, schedule: Q01DX011 (ip), vehicle: methylcellulose (MC)) is 54 % of control; the T/C (dose: 20.0 mg/kg/injection, schedule: Q01DX011 (ip), vehicle: carboxymethylcellulose (CMC)) was 53 % of control and 57 % of control; the T/C (dose: 20.0 mg/kg/injection, schedule: Q01DX011 (ip), vehicle: saline) was 64 % of control. Moreover, the T/C (dose: 25.0 mg/kg/injection, schedule: Q01DX011 (ip), vehicle: methylcellulose (MC)) was 37 % of control; the T/C (dose: 31.0 mg/kg/injection, schedule: Q01DX011 (ip), vehicle: carboxymethylcellulose (CMC)) was 52 % of control; the T/C (dose: 31.0 mg/kg/injection, schedule: Q01DX011 (ip), vehicle: methylcellulose (MC)) was 62 % of control; the T/C (dose: 40.0 mg/kg/injection, schedule: Q01DX011 (ip), vehicle: saline) is 63 % of control; the T/C (dose: 50.0 mg/kg/injection, schedule: Q01DX011 (ip), vehicle: methylcellulose (MC)) was 30 % of control; the T/C (dose: 62.0 mg/kg/injection, schedule: Q01DX011 (ip), vehicle: carboxymethylcellulose (CMC)) was 47 % of control. For the same compound, the T/C (dose: 62.0 mg/kg/injection, schedule: Q01DX011 (ip), vehicle: methylcellulose (MC)) was 94 % of control; the T/C (dose: 62.5 mg/kg/injection, schedule: Q01DX011 (ip), vehicle: carboxymethylcellulose (CMC)) is 55 % of control; the T/C (dose: 80.0 mg/kg/injection, schedule: Q01DX011 (ip), vehicle: saline) was 30 % of control; the T/C (dose: 100.0 mg/kg/injection, schedule: Q01DX011 (ip), vehicle: methylcellulose (MC)) is 22 % of control; the T/C (dose: 160.0 mg/kg/injection, schedule: Q01DX011 (ip), vehicle: saline) is 17 % of control; the T/C (dose: 600.0 mg/kg/injection, schedule: Q01DX011 (ip), vehicle: saline) was 3 % of control.

Take `O=C(OCC1OC(n2cnc3c(=O)[nH]c(=O)[nH]c32)C(OC(=O)c2ccccc2)C1OC(=O)c1ccccc1)c1ccccc1` (stereo not given): the T/C runs as follows: under setting [3], 105 % of control; under setting [4], 78 % of control; (dose: 240.0 mg/kg/injection, schedule: Q01DX011 (ip), vehicle: carboxymethylcellulose (CMC)) 59 % of control.

In the case of `Cn1cnc2c(SCc3ccccc3)ncnc21`, the T/C was 3 % of control (dose: 63.0 mg/kg/injection, schedule: Q01DX011 (ip), vehicle: carboxymethylcellulose (CMC)); 1 % of control (dose: 126.0 mg/kg/injection, schedule: Q01DX011 (ip), vehicle: carboxymethylcellulose (CMC)); 1 % of control (dose: 252.0 mg/kg/injection, schedule: Q01DX011 (ip), vehicle: carboxymethylcellulose (CMC)).

In the case of `COc1ccc(C2=NC(=O)NC2c2ccc(OC)cc2)cc1` (stereo not given), the T/C was 112 % of control (dose: 10.0 mg/kg/injection, schedule: Q01DX011 (ip), vehicle: saline) and 18 % of control under setting [5].

Consider `[N-]=[N+]=NC1(C(=O)O)CCCC1`, for which the T/C is 109 % of control under setting [2], 100 % of control under setting [3] and 120 % of control under setting [4].

As for `O=C1NC(=O)C(c2ccc(Cl)cc2)(c2ccccc2Cl)N1` (stereo not given), the T/C reads like this: under setting [5], 91 % of control; (dose: 100.0 mg/kg/injection, schedule: Q01DX011 (ip), vehicle: saline) 82 % of control; (dose: 125.0 mg/kg/injection, schedule: Q01DX011 (ip), vehicle: carboxymethylcellulose (CMC)) 81 % of control; (dose: 200.0 mg/kg/injection, schedule: Q01DX011 (ip), vehicle: saline) 58 % of control and 77 % of control; (dose: 250.0 mg/kg/injection, schedule: Q01DX011 (ip), vehicle: carboxymethylcellulose (CMC)) 28 % of control; (dose: 400.0 mg/kg/injection, schedule: Q01DX011 (ip), vehicle: other) 71 % of control. Further, the T/C by setting is: (dose: 500.0 mg/kg/injection, schedule: Q01DX011 (ip), vehicle: carboxymethylcellulose (CMC)) 81 % of control; (dose: 800.0 mg/kg/injection, schedule: Q01DX011 (ip), vehicle: other) 30 % of control; (dose: 800.0 mg/kg/injection, schedule: Q01DX011 (ip), vehicle: saline) 76 % of control; (dose: 1600.0 mg/kg/injection, schedule: Q01DX011 (ip), vehicle: saline) 107 % of control.

As to `COc1cc(C(=O)O)nc(N)n1`, the T/C (dose: 15.0 mg/kg/injection, schedule: Q01DX011 (ip), vehicle: saline) is 111 % of control; the T/C (dose: 125.0 mg/kg/injection, schedule: Q01DX011 (ip), vehicle: saline) is 100 % of control; the T/C (dose: 250.0 mg/kg/injection, schedule: Q01DX011 (ip), vehicle: saline) was 161 % of control.

As a reminder, the T/C is the ratio of treated to control.
